Source: PMC7168933, “Design, Synthesis and Biochemical Evaluation of Novel Ethanoanthracenes and Related Compounds to Target Burkitt’s Lymphoma” (Pharmaceuticals, 2020)
Like-named read-outs stand apart in the source and are kept apart here.

Experiments:
[1] = tested on: MUTU-1 Burkitt's lymphoma cell line; assay: FITC Annexin V/PI FACS analysis of apoptosis in MUTU-I cells; assay type: cell-based; settings: 24 h
Description: (§1) BL cells DG-75 and MUTU-1 (750,000) were treated with the specified concentration of the selected compound and incubated for 24 h (MUTU-1) or 48 h (DG-75) with taxol as the positive control. Samples were harvested by centrifugation and the pellets were rinsed with 0.5 mL of Ca^2+ Annexin V binding buffer (0.1 M HEPES, pH 7.4; 1.4 M NaCl; 25 mM CaCl2) each and pelleted again by centrifugation. Supernatants were decanted and the pellets were suspended again in 50 µL FITC Annexin V (diluted 1:33 in Ca^2+ Annexin V binding buffer), the samples were then placed on ice and incubated for 10 min in the dark. After the incubation period 0.5 mL of Ca^2+ Annexin V binding buffer was added and samples were pelleted by centrifugation. The supernatant was decanted and the pellet was suspended in PI solution (500 µL; 0.5 µg/mL). After 1 h, the samples were recorded using a CyAn ADP flow cytometer (Beckman Coulter Inc., Brea, CA, USA). 10,000 cells were analysed with the Flowjo software package. Taxol was used as a positive control for cell death.

[2] = tested on: DG-75 Burkitt lymphoma cell line (EBV−, chemoresistant); assay: cells; settings: Homo sapiens, DG-75, 48 h; for viability at 1 µM: read-out: DG-75 Cell Viability % 1 μM, 1 μM, 48 h; for viability at 10 µM: read-out: DG-75 Cell Viability % 10 μM, 10 μM, 48 h; for IC50: read-out: IC50 DG-75 48 h
[3] = tested on: MUTU-1 Burkitt lymphoma cell line (EBV+); assay: cells; settings: Mutu-1, 24 h; for IC50: read-out: IC50 MUTU-I 24 h; for viability at 1 µM: read-out: MUTU-1 Cell Viability % 1 μM, 1 μM, 24 h; for viability at 10 µM: read-out: MUTU-1 Cell Viability % 10 μM, 10 μM, 24 h
[4] = tested on: DG-75 Burkitt lymphoma cell line (EBV−, chemoresistant); settings: 48 h
[5] = tested on: MUTU-1 Burkitt lymphoma cell line (EBV+); settings: 24 h
[6] = tested on: DG-75 Burkitt's lymphoma cell line; assay: FITC Annexin V/PI FACS analysis of apoptosis in DG-75 cells; assay type: cell-based; settings: 48 h
Description: as §1

[7] = HPLC stability study in phosphate buffers; assay type: physicochemical
Description: The HPLC stability studies for compound 16a were performed using a Symmetry® column (C18, 5 µm, 4.6 × 150 mm), detector Waters 2487 Dual Wavelength Absorbance, HPLC pump: Waters 1525 binary and Autosampler: Waters 717 plus (Waters Corporation, Milford, MA, USA). Samples were detected at wavelength of 254 nm. The chromatography was performed with the following optimised conditions: mobile phase: (acetonitrile (80%): water (20%)), run time: 10 min, flow rate: 1 mL/min, with detection at 254 nm. Compound 16a (5 mg) was dissolved in the mobile phase (10 mL) to provide the stock solution for the experiment. The phosphate buffers were prepared following the British Pharmacopoeia monograph 2019 at the selected pH 4, pH 7.4 and pH 9. To a volume of the appropriate buffer (1 mL), stock solution (30 μL) was added, and the solution was shaken and then used immediately for the experiment. Samples of the solution were then analysed over the following 48 h period at selected time intervals (t = 0 min, 5 min, 30 min, 60 min, 90 min, 120 min, 24 h and 48 h).

SMILES | viability at 1 µM [2] | viability at 10 µM [2] | IC50 [2] | IC50 [3] | viability at 1 µM [3] | viability at 10 µM [3] | cell viability in MUTU-I cell line (1 and 10 μM together or concentration not stated) [5] | apoptosis in DG-75 at 10 µM [6] | DG-75 Cell Viability % 1 μM [4] | DG-75 Cell Viability % 10 μM [4] | melting point | also measured
O=C1NC(=O)C2C1C1(Cl)c3ccccc3C2(C=C[N+](=O)[O-])c2ccccc21 (centres unmarked) [Compound 13j, (E)-9-Chloro-10-(2-nitrovinyl)-9,10-dihydro-9,10-[3,4]epipyrroloanthracene-12,14-dione] | 12.1% | 5.9% | 780 nM | 250 nM | < 1% | 0.62% | 0.4–13.5% | 90% | – | – | – | apoptosis in MUTU-I at 0.5 µM [1]: > 90%; cell viability in DG-75 cell line (1 and 10 μM together or concentration not stated) [4]: 0.4–13.5%; MUTU-1 Cell Viability % 1 μM [5]: 0.70%
O=C1C2C3c4ccccc4C(C=C[N+](=O)[O-])(c4ccccc43)C2C(=O)N1c1ccccc1 (centres unmarked) [Compound 16a, (E)-9-(2-Nitrovinyl)-13-phenyl-9,10-dihydro-9,10-[3,4]epipyrroloanthracene-12,14-dione] | – | 1.1% | 710 nM | 210 nM | 10% | 1.4% | – | 92% | < 6% | – | – | apoptosis in MUTU-I at 0.2 µM [1]: 46%; apoptosis in MUTU-I at 0.5 µM [1]: over 80%; apoptosis in MUTU-I at 1 µM [1]: over 80%; apoptosis in MUTU-I at 10 µM [1]: over 80%; half-life at 14.6 µg/mL ([7]; pH 4 phosphate buffer, read-out: half-life (t½) at pH 4 (converted)): 11 h; half-life at 14.6 µg/mL ([7]; pH 7.4 phosphate buffer, read-out: half-life (t½) at pH 7.4 (converted)): 10.5 h; half-life at 14.6 µg/mL ([7]; pH 9 phosphate buffer, read-out: half-life (t½) at pH 9): > 24 h; MUTU-1 Cell Viability % 1 μM [5]: 10.3%; apoptosis in DG-75 at lower concentrations ([6]; concentrations lower than 10 µM): < 5%
O=[N+]([O-])/C=C/c1c2ccccc2cc2ccccc12 [Compound 12a, (E)-9-(2-nitrovinyl)anthracene] | 94.6% | < 14% | 2080 nM | 2570 nM | 81.9% | – | – | 82% | – | 14.0% | – | apoptosis in MUTU-I at 1 µM [1]: little effect; apoptosis in MUTU-I at 10 µM [1]: 90%; MUTU-1 Cell Viability % 10 μM [5]: 5.9%; apoptosis in DG-75 at 1 µM [6]: 10%
CC(=O)O[C@H]1C(=O)[C@@]2(C)[C@H]([C@H](OC(=O)c3ccccc3)[C@]3(O)C[C@H](OC(=O)[C@H](O)[C@@H](NC(=O)c4ccccc4)c4ccccc4)C(C)=C1C3(C)C)[C@]1(OC(C)=O)CO[C@@H]1C[C@@H]2O [Taxol, taxol, reference compound] | 48.8% | 10% | 1320 nM | 320 nM | 30.4% | 10% | – | 73% | – | 9.9% | – | apoptosis in MUTU-I at 1 µM [1]: 63%; apoptosis in MUTU-I at 10 µM [1]: 87%; MUTU-1 Cell Viability % 10 μM [5]: 9.8%; apoptosis in DG-75 at 1 µM [6]: 21%
O=C1OC(=O)C2C1C1c3ccccc3C2(/C=C/[N+](=O)[O-])c2ccccc21 (centres unmarked) [Compound 13a, (E)-9-(2-Nitrovinyl)-9,10-dihydro-9,10-[3,4]furanoanthracene-12,14-dione] | 78.5% | 62.2% | – | – | 24.4% | 12.5% | 7–24% | – | – | – | 244 to 245 °C | –
O=C1NC(=O)C2C1C1c3ccccc3C2(/C=C/[N+](=O)[O-])c2ccccc21 (centres unmarked) [Compound 13g, (E)-9-(2-Nitrovinyl)-9,10-dihydro-9,10-[3,4]epipyrroloanthracene-12,14-dione] | 1% | 11.7% | – | – | 0.47% | 7.2% | – | – | 1.1% | – | 176 to 178 °C | –
C/C(=C\C12c3ccccc3C(c3ccccc31)C1C(=O)OC(=O)C12)[N+](=O)[O-] (centres unmarked) [Compound 13b, (E)-9-(2-Nitroprop-1-en-1-yl)-9,10-dihydro-9,10-[3,4]furanoanthracene-12,14-dione] | 1% | 0.47% | – | – | 11.7% | 7.2% | 7–24% | – | 1.1% | – | 256 to 258 °C | –
CN1C(=O)C2C3c4ccccc4C(/C=C/[N+](=O)[O-])(c4ccccc43)C2C1=O (centres unmarked) [Compound 13m, (E)-13-Methyl-9-(2-nitrovinyl)-9,10-dihydro-9,10-[3,4]epipyrroloanthracene-12,14-dione] | 38.1% | 0.93% | – | 320 nM | – | 7.4% | – | – | – | – | 267 to 268 °C | MUTU-1 Cell Viability % 1 μM [5]: 0%
O=C1C2C(C(=O)N1c1ccccc1)C1(/C=C/[N+](=O)[O-])c3ccccc3C2(Cl)c2ccccc21 (centres unmarked) [Compound 16d, (E)-9-Chloro-10-(2-nitrovinyl)-13-phenyl-9,10-dihydro-9,10-[3,4]epipyrroloanthracene-12,14-dione] | < 14% | 5.1% | 590 nM | 220 nM | 0.77% | 0.41% | 0.4–13.5% | 44% | 13.5% | – | – | apoptosis in MUTU-I at 0.2 µM [1]: 63%; cell viability in DG-75 cell line (1 and 10 μM together or concentration not stated) [4]: 0.4–13.5%; apoptosis in DG-75 at 1 µM [6]: 15%
N/N=C/C12c3ccccc3C(Cl)(c3ccccc31)C1C(=O)NC(=O)C12 (centres unmarked) [Compound 23i, (E)-9-Chloro-10-(hydrazonomethyl)-9,10-dihydro-9,10-[3,4]epipyrroloanthracene-12,14-dione] | 85.8% | 19% | – | – | 102% | 106% | – | – | – | 18.9% | 241 to 244 °C | –
N#CC1CC2c3ccccc3C1(/C=C/[N+](=O)[O-])c1ccccc12 (centres unmarked) [Compound 19a, (E)-10-(2-Nitrovinyl)-9,10-dihydro-9,10-ethanoanthracene-11-carbonitrile] | 20.6% | 0% | 690 nM | 380 nM | 9% | 0% | – | 87% | – | – | – | apoptosis in MUTU-I at 0.5 µM [1]: > 90%
N#C/C=C/C12c3ccccc3C(c3ccccc31)C1C(=O)NC(=O)C12 (centres unmarked) [Compound 23b, (E)-3-(12,14-Dioxo-9,10-[3,4]epipyrroloanthracen-9(10H)-yl)acrylonitrile] | 101% | 54% | – | – | 79.4% | 79% | – | – | – | 54.1% | 289 to 300 °C | –
